Residues, ends and D or L forms follow the SMILES beside them. *: point of attachment. Cbz = O=C(OCc1ccccc1)*; CH2F = FC*
What was measured:
Cathepsin D = Cathepsin D (Homo sapiens, UniProt P07339); assay: Selectivity test (Steps VI and IX), Cathepsin D; type: biochemical; conditions: vehicle 4 X 10^-5 M; pH 7.1, substrate Z-RGFFP-AFC; 40 µM
Protocol: (§1) In order to perform the assay, the vehicle (for Step VI) or inhibitor (for Step IX) were incubated with the appropriate substrate in the correct assay buffer and allowed to equilibrate. Subsequently, the protease was added, and the assay was allowed to incubate for an appropriate time. The concentrations used in this experiment were as follows: Vehicle was set up at 4 X 10^-5 M in final assay buffer; Inhibitor was set up at 3 X 10^-10 M in the final assay buffer. Preferably the dosages employed should be the minimal amount of vehicle or inhibitor necessary to induce inhibition. […] Substrates were set up based upon the preferred substrate for cleavage of the particular enzyme.
(§2) Positive controls were set up similarly as described for test controls, except that a solvent blank was added in substitution for the inhibitor or vehicle (in a volume equal to the volume of inhibitor or vehicle addition). All of the inhibitors and vehicles could be dissolved in dimethylsulfoxide (DMSO), and therefore, this was the solvent of choice. Negative controls were set up by adding the inhibitor or vehicle and the preferred substrates in a tube without the protease. […]
(§3) Percent inhibition was calculated as: %Inhibition = ((AFC positive for "SI"−AFC negative for "SI")−(AFC test−AFC negative for "SI"))/(AFC positive for "SI"−AFC negative for "SI") × 100 [formula] […]

Cathepsin B = Cathepsin B (Homo sapiens, UniProt P07858); assay: Selectivity test (Steps VI and IX), Cathepsin B; type: biochemical; conditions: vehicle 4 X 10^-5 M; pH 6.1, substrate Z-ARR-AFC; 40 µM
Protocol: as §1, §2, §3

BALB/c mice = assay: Observation of side effects in treated mice; type: in vivo
[1] = system: normal BALB/c mouse splenocytes; assay: Splenocyte proliferation (3H-thymidine incorporation) with or without Con-A; type: cell-based
[2] = system: purified Taenia solium cysteine protease; assay: Protease inactivator inhibition assay against cocktail, EC100 and Ki (Step VII); type: biochemical
Description: Once the protease inactivators were synthesized in the organic laboratory, they were to be tested for the lowest efficacious concentrations at which they induced 100% inhibition of the target protease (EC100). The top percent cocktail that was employed in the final vehicle selection step of Step III was employed as the source of competition for the inhibitors. In this case, this was the 7.9% cocktail that was comprised of Z-FR-AFC, Z-FAR-AFC, Z-AP-AFC, Z-AAK-AFC, and Z-VLR-AFC. The final result would be a ranking of transition state candidate protease inactivators with a high ranking directly correlating to a low EC100 value. The following steps describe the assay: • Step A: Initial Screening. To set up the test control, each protease inactivator was first incubated with the 5% cocktail (which provided the final differentiation of vehicles in Step III). To begin with, the protease inactivator was incubated at a concentration of 3 X 10^-9M in 500 ul of assay buffer (0.2 M Citrate, pH 4.9, supplemented with 10mM L-cysteine). This concentration was determined by a series of inhibitor dilutions to be the best inhibitor concentration at which a differentiation in inhibitor potential could be noted. Next, a concentration equal to 4 X 10^-5M for each of the individual cocktail components, was added to the mix. The components were allowed to equilibrate for a period of 30 minutes. Finally, active purified enzyme was added to the tubes at a concentration which was always at least 50 times less than the concentration of the lowest concentration in the mix (so as to provide saturating conditions.) This concentration varied from purification to purification, and the amount that was added depended upon the yield and specific activity of the purified protease. Positive controls were set up similarly as described for test controls, except that solvent was added in substitution for the protease inactivator (in a volume equal to the […] volume addition). All of the protease inactivators could be dissolved in dimethylsulfoxide (DMSO), and therefore, this was the solvent of choice. Negative controls were set up by adding the protease inactivator and the cocktail substrates in a tube, without the protease. All potential non-proteolytic induced liberation of AFC was therefore controlled for in this tube. All controls were set up in triplicate, and experiments repeated a minimum of five times. The assays were incubated at 37°C, overnight. Percent inhibition was calculated as: %Inhibition = ((AFC positive for "SI"−AFC negative for "SI")−(AFC test−AFC negative for "SI"))/(AFC positive for "SI"−AFC negative for "SI") × 100 [formula] • Step B: Inhibitor Dilution Studies and formation of a ranked list of protease inactivators based upon EC100 values. […] Because of this, a dilution study was required in order to determine a viable ranking. Thus, the concentration of each of the protease inactivators was lowered with a dose response setup until the most efficacious concentration for 100% inhibition (EC100) could be determined. The inhibitors had to be diluted to nanomolar levels in order to establish a differentiable EC100 pattern. The final result of the assay was a ranked candidate list of protease inactivators. A lower EC100 was attributable to a higher ranking and vice-versa. • Step C: Determination of Inhibitor Ki and mode of inhibition, and re-ranking of EC100 list with inhibitor Ki. Ki of each of the top ranked protease inactivators, based upon low EC100 values, was assessed next for the top 5 EC100 inhibitors.
In order to determine Ki, all of the high Vmax cocktail substrates were employed for Ki determination (since Ki of the inhibitor for the enzyme is the same regardless of the substrate). To insure the highest accuracy, Ki was to be determined upon a minimum of at least three of the high Kcat substrates. Nonlinear fitting and the Dixon plot were both employed to determine Ki of the top ranked protease inactivators. […]

Sequence of Cathepsin D (P07339 65-412): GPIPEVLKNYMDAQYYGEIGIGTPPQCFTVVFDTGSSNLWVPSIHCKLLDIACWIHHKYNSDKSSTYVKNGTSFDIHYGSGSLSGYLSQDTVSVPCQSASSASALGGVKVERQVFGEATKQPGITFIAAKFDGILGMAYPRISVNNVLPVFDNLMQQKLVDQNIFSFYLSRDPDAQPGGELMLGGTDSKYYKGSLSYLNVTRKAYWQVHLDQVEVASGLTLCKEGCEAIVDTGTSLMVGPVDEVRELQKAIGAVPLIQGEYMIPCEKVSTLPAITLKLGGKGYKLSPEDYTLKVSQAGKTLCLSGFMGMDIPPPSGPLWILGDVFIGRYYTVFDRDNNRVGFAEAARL

Row | Molecule | % inhibition (Cathepsin D) [%] | % inhibition (Cathepsin B) [%] | side effects in treated animals (BALB/c mice; long or short-term period) | side effects in treated mice (BALB/c mice; long-term studies) | side effects / inhibitor toxicity in treated mice (BALB/c mice; mouse, in vivo) | proliferative response (3H-thymidine incorporation) ([1]; inhibitor alone) | toxicity to splenocytes in vitro ([1]; preliminary results) | % Inhibition of T. solium CP in vitro ([2]; concentration not stated in Table 4) [%] | ranking by EC100 ([2]; dilution study, nanomolar levels)
1 | Mu-Leu-Tyr-AFC [Mu-LY-AFC] | 0 | 0 | – | – | – | – | – | – | –
2 | CC(C)C[C@H](NC(=O)OCc1ccccc1)C(=O)N[C@@H](CC(C)C)C(=O)N[C@@H](Cc1ccc(O)cc1)C(=O)CF [Z-LLY-FMK, Z-Leu-Leu-Tyr-FMK] (Cbz-Leu-Leu-Tyr-CH2F) | – | – | only negligible side effects | no side effects | no mice showed effects of inhibitor toxicity | do not induce a proliferative response | nontoxic | 97 | top inhibitors
